# From patent US20200129504A1, “COMPOSITIONS OF PLINABULIN AND USE THEREOF” (BeyondSpring Pharmaceuticals, Inc., priority 2017, published 2020)
# Assays:
# PDE3 = biological target: T1, PDE3 (Homo sapiens, UniProt Q14432); assay: Phosphodiesterase bioassay screening, PDE3 assay; assay type: biochemical; conditions: Plinabulin concentration 10 μm; n 2; source human platelets; [3H]cAMP+cAMP substrate; 25° C.
# T1 construct: The source for the PDE3 and PDE5 assays were human platelets; from tissue; host or cells: human platelets
# T1 sequence (Q14432 whole entry): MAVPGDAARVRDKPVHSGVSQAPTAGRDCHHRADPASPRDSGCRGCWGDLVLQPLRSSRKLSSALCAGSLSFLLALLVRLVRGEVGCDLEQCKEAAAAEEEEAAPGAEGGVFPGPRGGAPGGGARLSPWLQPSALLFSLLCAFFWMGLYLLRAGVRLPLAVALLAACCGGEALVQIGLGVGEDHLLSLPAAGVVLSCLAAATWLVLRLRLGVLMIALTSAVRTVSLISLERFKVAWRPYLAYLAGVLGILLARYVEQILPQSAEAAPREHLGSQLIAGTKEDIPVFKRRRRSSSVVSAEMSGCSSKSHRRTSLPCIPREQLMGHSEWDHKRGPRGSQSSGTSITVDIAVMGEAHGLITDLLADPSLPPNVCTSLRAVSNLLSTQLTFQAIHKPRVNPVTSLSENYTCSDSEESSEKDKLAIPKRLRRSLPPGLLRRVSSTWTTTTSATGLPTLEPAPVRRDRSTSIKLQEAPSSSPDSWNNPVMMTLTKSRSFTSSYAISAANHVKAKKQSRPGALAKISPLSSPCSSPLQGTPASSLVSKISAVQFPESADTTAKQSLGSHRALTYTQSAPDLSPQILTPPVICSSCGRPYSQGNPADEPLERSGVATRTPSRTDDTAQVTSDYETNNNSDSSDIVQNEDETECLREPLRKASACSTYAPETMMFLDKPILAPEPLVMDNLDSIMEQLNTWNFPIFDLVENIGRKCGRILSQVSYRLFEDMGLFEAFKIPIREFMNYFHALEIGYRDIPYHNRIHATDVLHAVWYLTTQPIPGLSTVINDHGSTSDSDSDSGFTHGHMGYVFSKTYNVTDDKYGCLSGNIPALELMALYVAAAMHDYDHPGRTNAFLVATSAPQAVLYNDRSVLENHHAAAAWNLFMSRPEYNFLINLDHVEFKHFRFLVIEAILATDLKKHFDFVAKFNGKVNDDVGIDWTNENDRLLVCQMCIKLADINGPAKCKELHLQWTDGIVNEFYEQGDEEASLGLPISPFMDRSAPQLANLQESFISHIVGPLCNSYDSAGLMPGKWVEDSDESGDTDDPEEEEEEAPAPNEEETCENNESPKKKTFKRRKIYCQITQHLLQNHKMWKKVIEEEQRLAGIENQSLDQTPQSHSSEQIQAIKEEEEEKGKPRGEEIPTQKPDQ
# Protocol: (§1) Plinabulin was tested using Phosphodiesterase assays including PDE3, PDE4, and PDE5 assays. The source for the PDE3 and PDE5 assays were human platelets and for PDE4 assay was human U937 cells. The substrate for all three assays was 1.01 µM [.H]cAMP+cAMP. For all three assays, the pre-incubation time was 15 mins, the incubation time was 20 mins, and the pre-incubation and incubation temperature was 25° C. The quantification method involves quantitation of [^3H]Adenosine, and the significant criteria was set for i 50% of max stimulation or inhibition.
# PDE4 = assay: Phosphodiesterase bioassay screening, PDE4 assay; assay type: biochemical, human
# Protocol: as §1
# PDE5 = biological target: T2, PDE5 (Homo sapiens, UniProt O76074); assay: Phosphodiesterase bioassay screening, PDE5 assay; assay type: biochemical; conditions: Plinabulin concentration 10 μm; n 2; source human platelets; [3H]cAMP+cAMP substrate; 25° C.
# T2 construct: The source for the PDE3 and PDE5 assays were human platelets; from tissue; host or cells: human platelets
# Protocol: as §1
# [1] = Clinical study of docetaxel plus plinabulin versus docetaxel alone: dexamethasone-related treatment emergent adverse events; assay type: in vivo, patients
# Protocol: Patients received either docetaxel plus plinabulin (DN) or docetaxel alone (75 mg/m^2) (D) treatment. Two dosing cohorts were investigated: • 1) 30 mg/m^2 dosing cohort: patients were randomized (1:1) to receive either docetaxel plus plinabulin at 30 mg/m^2 (DN 30 mg/m^2 arm) or docetaxel alone (D arm), • 2) 20 mg/m^2 dosing cohort: patients were randomized (2:1) to receive either docetaxel plus plinabulin at 20 mg/m^2 (DN 20 mg/m^2 arm) or docetaxel (D arm) alone.
# Patients received therapy on Day 1 and Day 8 in 3-week cycles. Therapy on Day 1 consisted of 75 mg/m^2 docetaxel administered via intravenous infusion (IV) over 1 hour, followed 2 hours later (from the time the docetaxel infusion began) by placebo (Arm D) or 30 mg/m^2 or 20 mg/m^2 plinabulin (Arm DN) administered via intravenous infusion (IV) over 30 minutes. […]
# Treatment Phase: Safety assessments (including a complete physical examination) were performed prior to study drug infusion. […] Additionally, the following were evaluated: CBC with differential/platelets and clinical chemistry were performed up to 72 hours prior to Day 1 of each cycle; an additional assessment occurred in Cycle 1/Day 15; Vital signs (heart rate, respiratory rate, blood pressure and temperature) were taken on the days of infusion immediately before and after each study drug infusion and at 30 and 60 minutes following last infusion on the first cycle. […]
smiles,measurement,setting,value
"CC(C)(C)c1[nH]cnc1/C=c1\[nH]c(=O)/c(=C/c2ccccc2)[nH]c1=O [Plinabulin, (3Z,6Z)-3-Benzylidene-6-{[5-(2-methyl-2-propanyl)-1H-imidazol-4-yl]methylene}-2,5-piperazinedione]",% of inhibition,PDE3,7%
same,% of inhibition,"PDE4; Plinabulin concentration 10 μm, n 2, source human U937 cells, [3H]cAMP+cAMP substrate, 25° C.",77%
same,inhibition activity against PDE4 compared with PDE3 and PDE5,"PDE4; from Table 1, 10 μm",better inhibition activity against PDE4
same,% of inhibition,PDE5,25%
same,steroid related adverse events versus patients receiving no plinabulin,"[1]; 30 mg/m^2 of plinabulin, p=0.026",statistically more significant
same,"steroid (dexamethasone)-related adverse events, effect of plinabulin dose (FIG. 1)",[1]; plinabulin 20 and 30 mg/m^2 added to docetaxel,dose-dependent increase
